“Also recorded” adds a separate entry of the source.
Assays:
PDE9A = PDE9A (Homo sapiens (Human), UniProt O76083); test: PDE selectivity SPA assay, PDE9A; assay type: biochemical; conditions: IC50 against PDE9A divided by IC50 against PDE7A
[1] = plasma and brain concentration in mice after intraperitoneal injection (LC/MS/MS); assay type: in vivo, mouse
Experimental: Adult male C57BL/6J; retired breeders, aged between 7-9 months (Jackson Laboratory, Bar Harbor, Me., USA), singly housed.
Just prior to the harvesting of tissues, mice were anesthetized with avertin. Samples of whole brain or plasma were collected from three animals per time point at 15 minutes, 30 minutes, 60 minutes, 120 minutes, and 240 minutes after injection. Blood samples were collected by retro-orbital bleeding. Plasma was prepared and red cells were removed by centrifugation. The mice were perfused with saline to remove contaminating blood. The brains were removed and rapidly frozen in liquid nitrogen for subsequent analysis. The plasma and brain samples were stored at −80° C. or on dry ice and the concentration of compound was determined by LC/MS/MS analysis as follows:
Whole brain tissue was homogenized using a Mini-Beaddeater-8™ (BioSpec Products, Bartlesville, Okla.). Plasma or homogenized brain samples were precipitated with acetonitrile and filtered in 96-well format using Captiva 0.20 micron filtration plates (Varian Corp, Lake Forest, Calif.). Filtrates were evaporated under nitrogen to dryness at 50° C. and were then reconstituted for LC-MS analysis.
Quantitative measurements for inhibitory compound in plasma and brain samples were obtained using a Thermo Ultra triple quadrupole mass spectrometer (Thermo Fisher Scientific, San Jose, Calif.), utilizing electrospray ionization in the multiple reaction monitoring mode of data acquisition. Sample extracts were injected onto a 2.1×30 mm packed Xterra C18-MS high pressure liquid chromatography (HPLC) column (Waters Corp, Milford, Mass.). The mobile phase eluting the compound from the HPLC column was applied using a Thermo Surveyor MS Plus HPLC quaternary pumping system (Thermo Fisher Scientific, San Jose, Calif.) and a HTC PAL autoinjector (LEAP Technologies, Chapel Hill, N.C.).

PDE11A = PDE11A (Homo sapiens (Human), UniProt Q9HCR9); test: PDE selectivity SPA assay, PDE11A; assay type: biochemical; conditions: IC50 against PDE11A divided by IC50 against PDE7A
Chain of PDE11A (Q9HCR9 whole entry): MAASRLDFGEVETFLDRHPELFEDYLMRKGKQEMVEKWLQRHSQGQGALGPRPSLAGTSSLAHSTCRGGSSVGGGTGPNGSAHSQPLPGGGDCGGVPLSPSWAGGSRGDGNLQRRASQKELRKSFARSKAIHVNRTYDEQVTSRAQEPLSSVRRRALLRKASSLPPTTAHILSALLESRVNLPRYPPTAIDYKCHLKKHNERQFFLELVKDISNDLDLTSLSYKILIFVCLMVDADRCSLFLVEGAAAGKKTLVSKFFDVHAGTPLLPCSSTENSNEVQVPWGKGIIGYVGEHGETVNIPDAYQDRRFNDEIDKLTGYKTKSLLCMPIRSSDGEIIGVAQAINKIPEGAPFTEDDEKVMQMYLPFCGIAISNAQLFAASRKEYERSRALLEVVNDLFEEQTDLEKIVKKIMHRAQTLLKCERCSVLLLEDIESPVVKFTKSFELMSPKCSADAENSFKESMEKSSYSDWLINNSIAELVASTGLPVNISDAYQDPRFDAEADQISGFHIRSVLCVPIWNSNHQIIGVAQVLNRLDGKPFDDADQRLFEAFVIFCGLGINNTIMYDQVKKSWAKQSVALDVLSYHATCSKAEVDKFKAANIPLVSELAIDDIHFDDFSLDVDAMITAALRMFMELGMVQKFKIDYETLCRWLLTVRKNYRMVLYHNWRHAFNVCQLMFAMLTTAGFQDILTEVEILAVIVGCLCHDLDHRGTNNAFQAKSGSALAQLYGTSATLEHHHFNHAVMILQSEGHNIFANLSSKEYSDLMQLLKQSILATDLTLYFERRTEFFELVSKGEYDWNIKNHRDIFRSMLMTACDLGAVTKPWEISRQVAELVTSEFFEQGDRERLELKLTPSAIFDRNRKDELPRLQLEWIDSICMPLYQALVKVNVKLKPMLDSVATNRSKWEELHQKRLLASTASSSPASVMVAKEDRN

PDE5A = PDE5A (Homo sapiens (Human), UniProt O76074); test: PDE selectivity SPA assay, PDE5A; assay type: biochemical; conditions: IC50 against PDE5A divided by IC50 against PDE7A
Experimental: Phosphodiesterase activity was measured by a scintillation proximity assay (SPA, GE Healthcare: Product Code TRKQ7100) with [^3H]-cAMP as the substrate for PDEs 3A, 4A, 8A, or with [^3H]-cGMP as the substrate for PDEs 1B, 2A, 5A, 9A, 10A and 11A. Purified human PDE1B, PDE2A, PDE3A, PDE4A, PDE5A, PDE8A, PDE9A and PDE11A4 were obtained from BPS Bioscience, San Diego, Calif. Purified murine PDE10A was also obtained from BPS Biosciences. […] Therefore, the results obtained using murine PDE10A are believed to be representative of human PDE10.
The purified PDE enzymes were each diluted and stored in a solution containing 25 mM Tris-Cl (pH 8.0), 100 mM NaCl, 0.05% Tween 20, 50% glycerol, and 3 mM DTT. PDE assays were carried out in the following assay cocktail (final concentrations): 50 mM Tris-Cl (pH 8.0), 8.3 mM MgCl2, 1.7 mM EGTA, 0.5 mg/ml BSA, 2.5% DMSO and between 0.2 ng and 6 ng of the PDE protein (depending on the enzyme activity) in a final volume of 0.1 mL.
Reactions were initiated by addition of enzyme, incubated for 20 minutes at 30° C. and then terminated by the addition of 50 μl of SPA beads containing Zn^2+.
The mixture was shaken, and allowed to settle for 3 hours. Then the production of [^3H]-AMP or [^3H]-GMP from the substrate was quantitated by scintillation counting in a Wallac® plate counter. […]

MPTP-treated mice = test: inked paw stride length in the MPTP mouse model of Parkinson's disease, panel of PDE7 inhibitors (Example 7); assay type: in vivo
Experimental: Adult male C57BL/6J; retired breeders, aged between 7-9 months Charles River Laboratories, Wilmington, Mass.), singly housed. Three groups of 35 mice were tested in series one week apart.
Mice received 2 subcutaneous injections of methylphenyltetrahydropyridine (“MPTP”) at a dose of 15 mg/kg (free base) with a 10-12 hour interval between injections. Control mice (sham lesion groups) were administered saline instead of MPTP.
Prior to injection with MPTP or saline, animals were pre-trained to walk across a clean sheet of paper into their home cage without stopping. For assessment of stride length, animals had their forepaws placed in black ink and the length of forepaw steps during normal walking (in a straight line only) was measured. The animals were immediately put back into their home cage upon completion of the task. Stride length was determined by measuring the distance between each step on the same side of the body, measuring from the middle toe of the first step to the heel of the second step. An average of at least four clear steps was calculated. The schedule for this experiment was as follows:
Because of the wide variation in aqueous solubility among these compounds, a number of different formulations were required. L-dopa was administered in 100 μl of phosphate buffered saline. For animals treated with L-dopa, the dopa decarboxylase inhibitor benserazide (100 μL of a 12.5 mg/kg solution) was administered 15 minutes prior to treatment with L-dopa in order to minimize the destruction of L-dopa in the peripheral blood. […] Therefore, the treatment effects observed are due solely to the PDE7 inhibitory compounds themselves. […] This phenomenon of “overshoot” has also been observed with L-dopa in MPTP-treated mice in which lower doses ameliorate hypoactivity while higher doses induce dyskinesias or uncontrolled movements (Lundblad M. et al., Exp Neurol.194(1):66-75 (2005); Pearce R. K. et al., Mov Disord. 10(6):731-40 (1995); Fredriksson, A. et al, Pharmacol-Toxicol. 67(4): 295-301 (1990)).
Retired breeder male mice were treated with either saline or 2×15 mg/kg MPTP to induce a Parkinsonian state (neurochemical loss of dopamine with corresponding behavioral deficits). On day one baseline stride length was measured and then mice were treated with either MPTP or with saline as a control. On day eight stride length was measured again, and the control value for stride length was derived from the stride length of saline-treated animals. The animals were then divided randomly into treatment groups. Compound OM955 (compound 3) was tested at 0.1 mg/kg, at 0.5 mg/kg, and at 0.1 mg/kg in combination with 1 mg/kg L-dopa.

PDE3A = PDE3A (Homo sapiens (Human), UniProt Q14432); test: PDE selectivity SPA assay, PDE3A; assay type: biochemical; conditions: IC50 against PDE3A divided by IC50 against PDE7A
Chain of PDE3A (Q14432 whole entry): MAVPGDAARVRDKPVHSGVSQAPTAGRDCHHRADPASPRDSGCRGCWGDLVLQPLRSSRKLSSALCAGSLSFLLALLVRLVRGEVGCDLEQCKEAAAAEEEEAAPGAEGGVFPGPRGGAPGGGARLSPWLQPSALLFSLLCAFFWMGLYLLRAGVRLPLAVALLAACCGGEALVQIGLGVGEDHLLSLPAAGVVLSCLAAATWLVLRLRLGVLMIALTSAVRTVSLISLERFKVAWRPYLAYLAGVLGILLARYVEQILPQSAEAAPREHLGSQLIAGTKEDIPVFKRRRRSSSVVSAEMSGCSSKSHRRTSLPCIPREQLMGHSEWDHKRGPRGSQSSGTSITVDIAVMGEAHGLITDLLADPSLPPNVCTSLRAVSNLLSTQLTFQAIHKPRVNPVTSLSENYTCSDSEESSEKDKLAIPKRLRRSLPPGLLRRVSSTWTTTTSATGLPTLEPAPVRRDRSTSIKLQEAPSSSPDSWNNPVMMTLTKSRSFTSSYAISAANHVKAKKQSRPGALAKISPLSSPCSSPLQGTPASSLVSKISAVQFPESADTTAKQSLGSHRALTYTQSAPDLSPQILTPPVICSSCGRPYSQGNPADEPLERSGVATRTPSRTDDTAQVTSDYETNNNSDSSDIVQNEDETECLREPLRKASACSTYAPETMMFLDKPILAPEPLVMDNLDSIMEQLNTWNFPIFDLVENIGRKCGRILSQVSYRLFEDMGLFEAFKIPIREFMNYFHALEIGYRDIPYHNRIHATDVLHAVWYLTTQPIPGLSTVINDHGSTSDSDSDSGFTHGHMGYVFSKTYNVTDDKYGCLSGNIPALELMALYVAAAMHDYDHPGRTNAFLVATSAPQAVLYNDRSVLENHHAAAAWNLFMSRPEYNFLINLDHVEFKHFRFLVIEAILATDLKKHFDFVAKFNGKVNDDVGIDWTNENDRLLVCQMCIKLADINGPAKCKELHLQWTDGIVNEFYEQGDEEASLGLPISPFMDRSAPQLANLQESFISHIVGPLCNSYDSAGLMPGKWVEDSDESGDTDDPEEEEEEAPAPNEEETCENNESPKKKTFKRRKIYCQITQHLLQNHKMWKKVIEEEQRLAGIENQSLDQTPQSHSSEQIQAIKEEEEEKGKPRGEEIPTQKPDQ

[2] = mouse, 1.0 mg/kg IP, 15 minutes
[3] = mouse, 1.0 mg/kg IP, 30 minutes post injection

Chain of PDE9A (O76083 whole entry): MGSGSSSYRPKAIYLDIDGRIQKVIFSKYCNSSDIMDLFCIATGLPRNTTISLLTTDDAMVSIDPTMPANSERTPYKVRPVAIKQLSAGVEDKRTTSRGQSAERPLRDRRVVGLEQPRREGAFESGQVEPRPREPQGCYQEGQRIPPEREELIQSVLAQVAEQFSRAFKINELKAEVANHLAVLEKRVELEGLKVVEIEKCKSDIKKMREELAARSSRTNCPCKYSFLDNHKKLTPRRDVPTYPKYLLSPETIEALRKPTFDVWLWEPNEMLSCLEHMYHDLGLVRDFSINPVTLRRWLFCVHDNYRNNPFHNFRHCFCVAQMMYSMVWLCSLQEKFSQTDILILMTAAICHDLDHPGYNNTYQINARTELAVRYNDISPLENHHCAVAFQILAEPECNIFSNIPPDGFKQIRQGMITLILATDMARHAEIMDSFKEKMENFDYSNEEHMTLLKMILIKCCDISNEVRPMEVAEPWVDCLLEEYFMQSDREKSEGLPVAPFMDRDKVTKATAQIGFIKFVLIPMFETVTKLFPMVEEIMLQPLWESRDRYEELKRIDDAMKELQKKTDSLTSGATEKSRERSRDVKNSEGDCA

| Structure (SMILES) | Fold Selectivity for PDE7A versus PDE9A (PDE9A) | maximal brain concentration at dose where efficacy was observed ([1]; mouse, at 0.5 mg/kg, analogous calculation) | Fold Selectivity for PDE7A versus PDE11A (PDE11A) | Fold Selectivity for PDE7A versus PDE5A (PDE5A) | effect on stride length, in words (MPTP-treated mice; OM955 0.1 mg/kg alone, 20 minutes after administration) | effect on stride length, in words (MPTP-treated mice; OM955 0.5 mg/kg, 20 minutes (and one hour) after injection) | Fold Selectivity for PDE7A versus PDE3A (PDE3A) | effect on stride length, in words (MPTP-treated mice; L-dopa 1 mg/kg alone, 20 minutes after administration) | brain tissue concentration [1, 2] | plasma concentration [1, 2] | peak brain level [1, 3] | peak plasma level [1, 3] | brain to plasma ratios ([1]; mouse, 1.0 mg/kg IP, all time points with levels above the lower limit of quantitation) | brain concentration converted to molar ([1]; mouse, 30 minutes after injection of a 1 mg/kg dose) | Ratio of Total Brain Exposure/Total Plasma Exposure ([1]; mouse, IP, AUC brain / AUC plasma, 1.0 mg/kg OM69, 10.0 mg/kg OM056, 30.0 mg/kg OM955 and OM956) | expected maximal brain concentration ([1]; mouse, dose of 0.1 mg/kg, assuming linearity of uptake and uniform brain distribution) | time to wash out of mice ([1]; previously determined from pharmacokinetic studies) |
| --- | --- | --- | --- | --- | --- | --- | --- | --- | --- | --- | --- | --- | --- | --- | --- | --- | --- |
| O=C1Nc2c(Cl)ccc(OCCO)c2C2(CCCCC2)N1 [OM955] | >192 fold | 292 nM | >192 fold | 355 fold | do not increase stride length when administered alone; also recorded: does not increase stride length in MPTP mice to a significant level | statistically significant improvement in the stride length; also recorded: fully restored to that of unlesioned animals; also recorded: full recovery of baseline stride length | >192 fold | – | – | – | – | – | – | – | – | – | – |
| N[C@@H](Cc1ccc(O)c(O)c1)C(=O)O [L-dopa, levodopa, reference compound] | – | – | – | – | – | – | – | do not increase stride length when administered alone; also recorded: does not increase stride length in MPTP mice to a significant level | – | – | – | – | – | – | – | – | – |
| COc1cc(N)ccc1-c1cc2c(c(=O)[nH]1)C(C1CCCCC1)N=[N+]2C (stereo not drawn) [OM69] | >7700 fold | – | 7070 fold | 4630 fold | – | – | 8170 fold | – | 25 ng/g | 51 ng/g | 44 ng/g | 59 ng/g | 45-75% | 124 nM | 0.78 | 12.4 nM | ≤ 12 h |

Reference: patent publication US8637528B2, “Use of PDE7 inhibitors for the treatment of movement disorders” (Omeros Corporation, priority 2007, dated 2014)
